Experimental data reported in US20210283261A1, “Compositions and Methods for Treating ALK-Mediated Cancer” (ICAHN SCHOOL OF MEDICINE AT MOUNT SINAI, priority 2017, published 2021).

target: T1, NPM-ALK fusion protein (Homo sapiens, UniProt Q9UM73); test: Western blot of NPM-ALK fusion protein levels in SU-DHL-1 cells; format: cell-based; conditions: SU-DHL-1 cells, 30 nM, Western blot; read-out: ALK fusion protein degradation, SU-DHL-1 (30 nM)
T1 construct: endogenous in cells; host or cells: SU-DHL-1; the other entry of the earlier key: NPM1 (P06748, Nucleophosmin)
Description: Cells were cultured in a 37° C. incubator with 5% CO2.
Cells were washed with cold PBS once and lysed in 1× Laemmli loading buffer directly. […] Membrane was blocked in 5% milk in Tris-buffered saline and Tween 20 (TBST) for 1 h at room temperature, followed by incubation with a primary antibody overnight at 4° C., and a horseradish peroxidase (HRP)-conjugated secondary antibody for 1 h at room temperature. The membrane was imaged by a ChemiDoc MP imaging system (BIO-RAD). Antibodies against GAPDH (abeam), Phospho-ALK (Tyr1507), ALK (Cell Signaling Technology), Tubulin (Santa Cruz) were purchased commercially.
SU-DHL-1 suspension cells were seeded in 12-well plates at a density of 6×10^5/mL and treated with DMSO or indicated compounds at 30 nM or 100 nM for indicated time.
SU-DHL-1 cells were seeded in 12-well plates at a density of 4×10^5/mL and treated with DMSO or indicated serial dilutions of compounds for 16 h. The NPM-ALK fusion protein levels were determined by Western blot and normalized against GPADH (right panel).

T1 sequence (Q9UM73 with tags, fused parts or gaps): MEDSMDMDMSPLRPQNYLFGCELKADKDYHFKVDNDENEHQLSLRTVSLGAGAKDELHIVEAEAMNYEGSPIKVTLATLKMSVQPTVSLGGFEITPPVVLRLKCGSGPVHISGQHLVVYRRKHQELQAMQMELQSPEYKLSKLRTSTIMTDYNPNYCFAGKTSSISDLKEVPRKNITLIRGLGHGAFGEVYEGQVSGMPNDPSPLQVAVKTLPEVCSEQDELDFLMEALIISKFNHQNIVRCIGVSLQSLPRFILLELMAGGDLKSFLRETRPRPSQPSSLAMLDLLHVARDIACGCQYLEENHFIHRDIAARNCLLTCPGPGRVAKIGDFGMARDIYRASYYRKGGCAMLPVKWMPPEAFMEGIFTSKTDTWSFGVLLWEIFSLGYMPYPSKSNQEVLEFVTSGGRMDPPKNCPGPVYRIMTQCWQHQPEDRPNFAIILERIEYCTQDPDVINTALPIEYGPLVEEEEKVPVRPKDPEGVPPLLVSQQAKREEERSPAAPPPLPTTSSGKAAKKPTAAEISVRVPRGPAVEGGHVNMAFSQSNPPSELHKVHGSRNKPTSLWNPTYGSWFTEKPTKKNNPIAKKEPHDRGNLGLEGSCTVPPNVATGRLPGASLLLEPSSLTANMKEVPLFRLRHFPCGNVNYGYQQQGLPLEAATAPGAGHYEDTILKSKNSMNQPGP

Row | Dmax at 0.03 µM | Compound
1 | > 80% | Cc1cc(Nc2ncc(Cl)c(Nc3ccccc3S(=O)(=O)C(C)C)n2)c(OC(C)C)cc1C1CCN(CC(=O)NCCOCCOCCNc2cccc3c2C(=O)N(C2CCC(=O)NC2=O)C3=O)CC1 (stereo not shown) [CZ40-51, 2-(4-(4-((5-Chloro-4-((2-(isopropylsulfonyl)phenyl)amino)pyrimidin-2-yl)amino)-5-isopropoxy-2-methylphenyl)piperidin-1-yl)-N-(2-(2-(2-((2-(2,6-dioxopiperidin-3-yl)-1,3-dioxoisoindolin-4-yl)amino)ethoxy)ethoxy)ethyl)acetamide]
2 | > 80% | Cc1cc(Nc2ncc(Cl)c(Nc3ccccc3S(=O)(=O)C(C)C)n2)c(OC(C)C)cc1C1CCN(CC(=O)NCCOCCOCCOCCNc2cccc3c2C(=O)N(C2CCC(=O)NC2=O)C3=O)CC1 (stereo not shown) [CZ40-52, 2-(4-(4-((5-Chloro-4-((2-(isopropylsulfonyl)phenyl)amino)pyrimidin-2-yl)amino)-5-isopropoxy-2-methylphenyl)piperidin-1-yl)-N-(2-(2-(2-(2-((2-(2,6-dioxopiperidin-3-yl)-1,3-dioxoisoindolin-4-yl)amino)ethoxy)ethoxy)ethoxy)ethyl)acetamide]
3 | > 80% | Cc1cc(Nc2ncc(Cl)c(Nc3ccccc3S(=O)(=O)C(C)C)n2)c(OC(C)C)cc1C1CCN(CC(=O)NCCCNc2cccc3c2C(=O)N(C2CCC(=O)NC2=O)C3=O)CC1 (stereo not shown) [CZ40-79, 2-(4-(4-((5-Chloro-4-((2-(isopropylsulfonyl)phenyl)amino)pyrimidin-2-yl)amino)-5-isopropoxy-2-methylphenyl)piperidin-1-yl)-N-(3-((2-(2,6-dioxopiperidin-3-yl)-1,3-dioxoisoindolin-4-yl)amino)propyl)acetamide]

target: T2, ALK fusion protein (Homo sapiens, UniProt Q9UM73); test: Western blot of ALK fusion protein levels in NCI-H3122 cells; format: cell-based; conditions: NCI-H3122, NCI-H3122 cells, 500 nM, Western blot; read-out: ALK fusion protein degradation, NCI-H3122 (500 nM)
T2 construct: endogenous in cells; host or cells: NCI-H3122; the other entry of the earlier key: EML4 (Q9HC35, Echinoderm microtubule-associated protein-like 4)
Description: SU-DHL-1, NCI-H3122 and NCI-H2228 cells were cultured in RPMI-1640 medium supplemented with 10% fetal bovine serum, 50 μg/mL penicillin and streptomycin. Cells were cultured in a 37° C. incubator with 5% CO2.
Cells were washed with cold PBS once and lysed in 1× Laemmli loading buffer directly. Lysates were heated at 99° C. for […], and resolved on 4-15% precast SDS-PAGE (BIO-RAD) and transferred onto PVDF membrane. Membrane was blocked in 5% milk in Tris-buffered saline and Tween 20 (TBST) for 1 h at room temperature, followed by incubation with a primary antibody overnight at 4° C., and a horseradish peroxidase (HRP)-conjugated secondary antibody for 1 h at room temperature. The membrane was imaged by a ChemiDoc MP imaging system (BIO-RAD). Antibodies against GAPDH (abeam), Phospho-ALK (Tyr1507), ALK (Cell Signaling Technology), Tubulin (Santa Cruz) were purchased commercially. […]

T2 sequence (Q9UM73 with tags, fused parts or gaps): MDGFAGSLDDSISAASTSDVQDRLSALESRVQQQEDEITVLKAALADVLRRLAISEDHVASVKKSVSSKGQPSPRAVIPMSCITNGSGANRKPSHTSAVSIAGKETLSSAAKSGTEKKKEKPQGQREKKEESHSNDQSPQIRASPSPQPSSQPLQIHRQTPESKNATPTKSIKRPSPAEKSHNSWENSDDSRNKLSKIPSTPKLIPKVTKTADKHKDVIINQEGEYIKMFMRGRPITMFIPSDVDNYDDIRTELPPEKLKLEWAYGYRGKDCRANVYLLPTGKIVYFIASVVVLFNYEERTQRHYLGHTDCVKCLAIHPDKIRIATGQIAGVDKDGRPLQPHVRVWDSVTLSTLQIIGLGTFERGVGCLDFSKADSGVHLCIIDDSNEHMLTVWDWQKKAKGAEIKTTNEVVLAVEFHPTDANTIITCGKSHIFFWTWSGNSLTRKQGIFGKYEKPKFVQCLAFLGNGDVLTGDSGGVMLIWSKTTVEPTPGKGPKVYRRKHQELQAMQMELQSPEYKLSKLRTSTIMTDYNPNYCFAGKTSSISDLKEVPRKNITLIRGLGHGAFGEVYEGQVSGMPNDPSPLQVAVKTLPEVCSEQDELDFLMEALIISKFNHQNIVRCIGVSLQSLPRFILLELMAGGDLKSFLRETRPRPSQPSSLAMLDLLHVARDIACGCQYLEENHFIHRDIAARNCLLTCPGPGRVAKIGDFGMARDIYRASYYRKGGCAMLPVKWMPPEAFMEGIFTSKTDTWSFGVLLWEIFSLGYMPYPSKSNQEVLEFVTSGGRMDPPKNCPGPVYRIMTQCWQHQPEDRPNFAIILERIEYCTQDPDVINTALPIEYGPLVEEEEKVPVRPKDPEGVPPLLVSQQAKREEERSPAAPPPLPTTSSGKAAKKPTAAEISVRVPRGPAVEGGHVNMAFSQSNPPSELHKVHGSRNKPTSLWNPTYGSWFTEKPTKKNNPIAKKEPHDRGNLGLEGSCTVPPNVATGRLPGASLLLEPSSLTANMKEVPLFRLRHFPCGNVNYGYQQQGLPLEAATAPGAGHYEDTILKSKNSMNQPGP

Row | Compound | Dmax at 0.5 µM
4 | Cc1cc(Nc2ncc(Cl)c(Nc3ccccc3S(=O)(=O)C(C)C)n2)c(OC(C)C)cc1C1CCN(C(=O)CCC(=O)N[C@H](C(=O)N2C[C@H](O)C[C@H]2C(=O)NCc2ccc(-c3scnc3C)cc2)C(C)(C)C)CC1 [CZ47-22, (2S,4R)-1-((S)-2-(4-(4-(4-((5-Chloro-4-((2-(isopropylsulfonyl)phenyl)amino)pyrimidin-2-yl)amino)-5-isopropoxy-2-methylphenyl)piperidin-1-yl)-4-oxobutanamido)-3,3-dimethylbutanoyl)-4-hydroxy-N-(4-(4-methylthiazol-5-yl)benzyl)pyrrolidine-2-carboxamide] | 20 to 80%
5 | Cc1cc(Nc2ncc(Cl)c(Nc3ccccc3S(=O)(=O)C(C)C)n2)c(OC(C)C)cc1C1CCN(C(=O)CCCCCCC(=O)N[C@H](C(=O)N2C[C@H](O)C[C@H]2C(=O)NCc2ccc(-c3scnc3C)cc2)C(C)(C)C)CC1 [CZ47-26, (2S,4R)-1-((S)-2-(8-(4-(4-((5-Chloro-4-((2-(isopropylsulfonyl)phenyl)amino)pyrimidin-2-yl)amino)-5-isopropoxy-2-methylphenyl)piperidin-1-yl)-8-oxooctanamido)-3,3-dimethylbutanoyl)-4-hydroxy-N-(4-(4-methylthiazol-5-yl)benzyl)pyrrolidine-2-carboxamide] | > 80%
6 | Cc1cc(Nc2ncc(Cl)c(Nc3ccccc3S(=O)(=O)C(C)C)n2)c(OC(C)C)cc1C1CCN(C(=O)CCCCCCCC(=O)N[C@H](C(=O)N2C[C@H](O)C[C@H]2C(=O)NCc2ccc(-c3scnc3C)cc2)C(C)(C)C)CC1 [CZ47-27, (2S,4R)-1-((S)-2-(9-(4-(4-((5-Chloro-4-((2-(isopropylsulfonyl)phenyl)amino)pyrimidin-2-yl)amino)-5-isopropoxy-2-methylphenyl)piperidin-1-yl)-9-oxononanamido)-3,3-dimethylbutanoyl)-4-hydroxy-7V-(4-(4-methylthiazol-5-yl)benzyl)pyrrolidine-2-carboxamide] | > 80%
7 | Cc1cc(Nc2ncc(Cl)c(Nc3ccccc3S(=O)(=O)C(C)C)n2)c(OC(C)C)cc1C1CCN(C(=O)CCCCCCCCCC(=O)N[C@H](C(=O)N2C[C@H](O)C[C@H]2C(=O)NCc2ccc(-c3scnc3C)cc2)C(C)(C)C)CC1 [CZ47-29, (2S,4R)-1-((S)-2-(ll-(4-(4-((5-Chloro-4-((2-(isopropylsulfonyl)phenyl)amino)pyrimidin-2-yl)amino)-5-isopropoxy-2-methylphenyl)piperidin-1-yl)-11-oxoundecanamido)-3,3-dimethylbutanoyl)-4-hydroxy-N-(4-(4-methylthiazol-5-yl)benzyl)pyrrolidine-2-carboxamide] | < 20%

The next lines start with the values.

Row | Dmax at 0.5 µM | Compound
8 | < 20% | Cc1cc(Nc2ncc(Cl)c(Nc3ccccc3S(=O)(=O)C(C)C)n2)c(OC(C)C)cc1C1CCN(C(=O)CCOCCOCCOCCC(=O)N[C@H](C(=O)N2C[C@H](O)C[C@H]2C(=O)NCc2ccc(-c3scnc3C)cc2)C(C)(C)C)CC1 [CZ47-18, (2S,4R)-1-((S)-2-(tert-Butyl)-16-(4-(4-((5-chloro-4-((2-(isopropylsulfonyl)phenyl)amino)pyrimidin-2-yl)amino)-5-isopropoxy-2-methylphenyl)piperidin-1-yl)-4,16-dioxo-7,10,13-trioxa-3-azahexadecanoyl)-4-hydroxy-N-(4-(4-methylthiazol-5-yl)benzyl)pyrrolidine-2-carboxamide]
9 | < 20% | Cc1cc(Nc2ncc(Cl)c(Nc3ccccc3S(=O)(=O)C(C)C)n2)c(OC(C)C)cc1C1CCN(C(=O)CCOCCOCCOCCOCCC(=O)N[C@H](C(=O)N2C[C@H](O)C[C@H]2C(=O)NCc2ccc(-c3scnc3C)cc2)C(C)(C)C)CC1 [CZ47-19, (2S,4R)-1-((S)-2-(tert-Butyl)-19-(4-(4-((5-chloro-4-((2-(isopropylsulfonyl)phenyl)amino)pyrimidin-2-yl)amino)-5-isopropoxy-2-methylphenyl)piperidin-1-yl)-4,19-dioxo-7,10,13,16-tetraoxa-3-azanonadecanoyl)-4-hydroxy-N-(4-(4-methylthiazol-5-yl)benzyl)pyrrolidine-2-carboxamide]
10 | < 20% | Cc1cc(Nc2ncc(Cl)c(Nc3ccccc3S(=O)(=O)C(C)C)n2)c(OC(C)C)cc1C1CCN(C(=O)COCCOCCOCCOCCOCC(=O)N[C@H](C(=O)N2C[C@H](O)C[C@H]2C(=O)NCc2ccc(-c3scnc3C)cc2)C(C)(C)C)CC1 [CZ47-20, (2S,4R)-1-((S)-2-(tert-Butyl)-20-(4-(4-((5-chloro-4-((2-(isopropylsulfonyl)phenyl)amino)pyrimidin-2-yl)amino)-5-isopropoxy-2-methylphenyl)piperidin-1-yl)-4,20-dioxo-6,9,12,15,18-pentaoxa-3-azaicosanoyl)-4-hydroxy-N-(4-(4-methylthiazol-5-yl)benzyl)pyrrolidine-2-carboxamide]
11 | < 20% | Cc1cc(Nc2ncc(Cl)c(Nc3ccccc3S(=O)(=O)C(C)C)n2)c(OC(C)C)cc1C1CCN(C(=O)CCOCCOCCOCCOCCOCCC(=O)N[C@H](C(=O)N2C[C@H](O)C[C@H]2C(=O)NCc2ccc(-c3scnc3C)cc2)C(C)(C)C)CC1 [CZ47-21, (2S,4R)-1-((S)-2-(tert-Butyl)-22-(4-(4-((5-chloro-4-((2-(isopropylsulfonyl)phenyl)amino)pyrimidin-2-yl)amino)-5-isopropoxy-2-methylphenyl)piperidin-1-yl)-4,22-dioxo-7,10,13,16,19-pentaoxa-3-azadocosanoyl)-4-hydroxy-N-(4-(4-methylthiazol-5-yl)benzyl)pyrrolidine-2-carboxamide]
12 | > 80% | Cc1cc(Nc2ncc(Cl)c(Nc3ccccc3S(=O)(=O)C(C)C)n2)c(OC(C)C)cc1C1CCN(C(=O)CCCCCC(=O)N[C@H](C(=O)N2C[C@H](O)C[C@H]2C(=O)NCc2ccc(-c3scnc3C)cc2)C(C)(C)C)CC1 [CZ47-25, (2S,4R)-1-((S)-2-(7-(4-(4-((5-Chloro-4-((2-(isopropylsulfonyl)phenyl)amino)pyrimidin-2-yl)amino)-5-isopropoxy-2-methylphenyl)piperidin-1-yl)-7-oxoheptanamido)-3,3-dimethylbutanoyl)-4-hydroxy-N-(4-(4-methylthiazol-5-yl)benzyl)pyrrolidine-2-carboxamide]
13 | < 20% | Cc1cc(Nc2ncc(Cl)c(Nc3ccccc3S(=O)(=O)C(C)C)n2)c(OC(C)C)cc1C1CCN(C(=O)CCCCCCCCC(=O)N[C@H](C(=O)N2C[C@H](O)C[C@H]2C(=O)NCc2ccc(-c3scnc3C)cc2)C(C)(C)C)CC1 [CZ47-28, (2S,4R)-1-((S)-2-(10-(4-(4-((5-Chloro-4-((2-(isopropylsulfonyl)phenyl)amino)pyrimidin-2-yl)amino)-5-isopropoxy-2-methylphenyl)piperidin-1-yl)-10-oxodecanamido)-3,3-dimethylbutanoyl)-4-hydroxy-N-(4-(4-methylthiazol-5-yl)benzyl)pyrrolidine-2-carboxamide]
